Experiments:
[1] = test system: MDA-MB-231; assay: Antiproliferative activity against human MDA-MB-231 cells assessed as reduction in cell viability incubated for 72 hrs by CyQuant assay; format: functional, cell-based; conditions: MDA-MB-231, 72 h
[2] = test system: MDA-MB-468; assay: Antiproliferative activity against human MDA-MB-468 cells harbouring STAT3 assessed as reduction in cell viability incubated for 72 hrs by CyQuant assay; format: functional, cell-based; conditions: MDA-MB-468, 72 h
[3] = test system: MCF7; assay: Antiproliferative activity against human MCF7 cells assessed as reduction in cell viability incubated for 72 hrs by CyQuant assay; format: functional, cell-based; conditions: MCF7, 72 h
[4] = test system: MCF-10A; assay: Cytotoxicity against human MCF-10A cells assessed as reduction in cell viability incubated for 72 hrs by CyQuant assay; format: cell-based

Compound	EC50 [1] [µM]	EC50 [2] [µM]	EC50 [3] [µM]	EC50 [4] [µM]
O=C([C@H]1CCN1S(=O)(=O)c1c(F)c(F)c(F)c(F)c1F)N(Cc1ccc(C2CCCCC2)cc1)c1ccc2c(=O)[nH]ccc2c1	1.4	3.8	6.2	5.3
O=C([C@H]1CCN1S(=O)(=O)c1c(F)c(F)c(F)c(F)c1F)N(Cc1ccc(C2CCCCC2)cn1)c1cc2[nH]ncc2cc1F	2.3	3.2	4.8	4.9
O=C1NCc2cc(N(Cc3ccc(C4CCCCC4)cn3)C(=O)[C@H]3CCN3S(=O)(=O)c3c(F)c(F)c(F)c(F)c3F)c(F)cc21	2	–	–	–
O=C([C@H]1CCN1S(=O)(=O)c1c(F)c(F)c(F)c(F)c1F)N(Cc1ccc(C2CCCCC2)cc1)c1cc2[nH]ncc2cc1F	2.4	–	9.4	8.1
O=C(NO)c1ccc(N(Cc2ccc(C3CCCCC3)cn2)C(=O)[C@H]2CCN2S(=O)(=O)c2c(F)c(F)c(F)c(F)c2F)cc1O	–	6.2	–	–
O=C([C@H]1CCN1S(=O)(=O)c1c(F)c(F)c(F)c(F)c1F)N(Cc1cnc(C2CCCCC2)cn1)c1ccc2nn[nH]c2c1	2.1	2.3	–	–
O=C(NO)c1ccc(N(Cc2ccc(C3CCCCC3)cn2)C(=O)[C@H]2CCN2S(=O)(=O)c2c(F)c(F)c(F)c(F)c2F)c(F)c1	5.8	4.2	–	–
O=C1NCc2cc(N(Cc3ccc(C4CCCCC4)cn3)C(=O)[C@H]3CCN3S(=O)(=O)c3c(F)c(F)c(F)c(F)c3F)ccc21	2	–	–	–
CONC(=O)c1ccc(N(Cc2ccc(C3CCCCC3)cn2)C(=O)[C@H]2CCN2S(=O)(=O)c2c(F)c(F)c(F)c(F)c2F)cc1O	6.7	3.9	–	–
NC(=O)c1ccc(N(Cc2ccc(C3CCCCC3)cn2)C(=O)[C@H]2CCN2S(=O)(=O)c2c(F)c(F)c(F)c(F)c2F)cc1O	2.9	2.6	4.6	7.2
COC(=O)c1ccc(N(Cc2ccc(C3CCCCC3)cn2)C(=O)[C@H]2CCN2S(=O)(=O)c2c(F)c(F)c(F)c(F)c2F)cc1O	1.8	–	–	–
Cn1ccc2cc(N(Cc3ccc(C4CCCCC4)cn3)C(=O)[C@H]3CCN3S(=O)(=O)c3c(F)c(F)c(F)c(F)c3F)ccc2c1=O	2.3	–	2.8	4.4
O=C([C@H]1CCN1S(=O)(=O)c1c(F)c(F)c(F)c(F)c1F)N(Cc1ccc(C2CCCCC2)cc1)c1ccc2c(=O)[nH]ncc2c1	1.6	1.1	4.5	4.6
O=C(NO)c1ccc(N(Cc2ccc(C3CCCC3)cc2)C(=O)[C@H]2CCN2S(=O)(=O)c2c(F)c(F)c(F)c(F)c2F)cc1	3.1	1.8	7.2	7.3
O=C([C@H]1CCN1S(=O)(=O)c1c(F)c(F)c(F)c(F)c1F)N(Cc1ccc(C2CCCCC2)cn1)c1ccc2c(=O)[nH]cnc2c1	3.3	1.5	3.6	4
O=C(NO)c1ccc(N(Cc2ccc(C3CCCCC3)cc2)C(=O)[C@H]2CCN2S(=O)(=O)c2c(F)c(F)c(F)c(F)c2F)cc1	5	–	6.8	7.9
O=C(NO)c1ccc(N(Cc2cnc(C3CCCCC3)cn2)C(=O)[C@H]2CCN2S(=O)(=O)c2c(F)c(F)c(F)c(F)c2F)cc1O	5.2	5.1	–	–
O=C([C@H]1CCN1S(=O)(=O)c1c(F)c(F)c(F)c(F)c1F)N(Cc1ccc(C2CCCCC2)cn1)c1ccc2nn[nH]c2c1	6.6	5.1	–	–
COC(=O)c1ccc(N(Cc2ccc(C3CCCCC3)nc2)C(=O)[C@H]2CCN2S(=O)(=O)c2c(F)c(F)c(F)c(F)c2F)cc1O	2	–	–	–
O=C([C@H]1CCN1S(=O)(=O)c1c(F)c(F)c(F)c(F)c1F)N(Cc1cnc(C2CCCCC2)cn1)c1ccc2c(=O)[nH]ncc2c1	4.8	–	–	–
O=C(NO)c1cc(F)c(N(Cc2ccc(C3CCOCC3)cc2)C(=O)[C@H]2CCN2S(=O)(=O)c2c(F)c(F)c(F)c(F)c2F)cc1O	5.1	–	–	–
O=C([C@H]1CCN1S(=O)(=O)c1c(F)c(F)c(F)c(F)c1F)N(Cc1cnc(C2CCCCC2)cn1)c1ccc2c(=O)[nH]cnc2c1	4.2	–	–	–

Reference: ChEMBL document CHEMBL4706639, “Discovery of Novel Azetidine Amides as Potent Small-Molecule STAT3 Inhibitors” (J Med Chem, 2021)
